Test results published in patent publication US11060092B2, “Inhibitors of cytoplasmic histone deacetylase 4 complex for treating or preventing vascular or valve calcification” (TECHNION RESEARCH AND DEVELOPMENT FOUNDATION LTD., priority 2016, dated 2021).

Columns and labels:
bone mass = details: once daily treatment; cited from earlier work
GFP-HDAC4 in VSMCs = test: GFP-HDAC4 cytoplasmic/nuclear localization in transfected VSMCs (CellProfiler scoring); assay type: cell-based, mouse; details: for effect on HDAC4 location (nuclear accumulation / shuttling): VSMCs transfected with GFP-HDAC4; for cytoplasmic localization of HDAC4: VSMCs transfected with wild type GFP-HDAC4, vehicle 96.8%
Experimental: (§1) Mouse aortic smooth muscle cells were purchased from ATCC (CRL-2797) and grown in DMEM supplemented with 10% FBS. 10 mmol/L beta-glycerophosphate (Sigma-Aldrich) and 0.2 mmol/L 2-Phospho-L-ascorbic acid (Sigma-Aldrich) were added to the growth media for 3-14 days to induce calcification (HPM). All cultured cells were maintained at 37° C. with 5% CO2.
Cell were transfected with pEGFP-HDAC4, pEGFP-HDAC4 3SA, pcDNA HDAC4-flag that were a gift from Tso-Pang Yao (Addgene plasmid #45636, #45637, #30485) [Cohen T. J. et al., The histone deacetylase HDAC4 connects neural activity to muscle transcriptional reprogramming. J Biol Chem 2007, 282, 33752-33759] or pEGFP-HDAC4 3-625 plasmid. Mouse ENIGMA (Pdlim7) or truncation mutants were cloned to pcDNA-3HA backbone plasmid. Transfections were performed using polyjet reagent (signaGen) according to manufacturer's instructions. Hdac4 siRNA (IDT), ENIGMA siRNA (GE Healthcare Life Sciences Dharmacon) LKB1 siRNA (IDT) and Sun2 siRNA (IDT) were transfected to the cells using Stemfect RNA Transfection Kit (Stemgent Inc.) according to manufacturer's instructions.
The pan-SIK, inhibitors: HG-9-91-01 (ApexBio #B1052), WH-4-023 (Sigma-Aldrich), MRT67307 (Sigma-Aldrich) and the pan-PKD and CamK inhibitors: CID-2011756 (Cayman #15317), KN-93 (Sigma-Aldrich K1285), were added to the HPM at final concentrations of 0.5, 1, 2, 5 and 10 μmol/L.
For localization and co-localization assays cell were transfected with pEGFP-HDAC4 plasmids, fixed with 4% formaldehyde in PBS, and blocked in 5% FBS in PBS. Staining for ENIGMA was done with overnight incubation of an antibody recognizing Pdlim7 (ProteinTech #10221-1-AP) in 2% FBS. Cy3-conjugated AffiniPure Donkey Anti-Rabbit IgG secondary antibody (Jackson ImmunoResearch) was used for detection. Nuclei were counterstained with DAPI 1 μg/ml. Cells were imaged using Zeiss Axio observer fluorescent microscope. Cytoplasmic and nuclear localization analysis was performed automatically on acquired images using CellProfiler cell image and analysis software [Carpenter A. E. et al., CellProfiler: image analysis software for identifying and quantifying cell phenotypes. Genome Biol 2006, 7, R100].

VSMCs [1] = test: qRT-PCR of osteochondrogenic markers in VSMCs; assay type: cell-based, mouse; details: VSMCs grown 7 days in HPM, 1 μM vs DMSO
Experimental: as §1
RNA was extracted from cultured cell using the NucleoSpin RNA kit (MACH EREY-NAGEL). The RNeasy Fibrous Tissue mini and midi kits (Qiagen) were used to extract RNA from aortic rings and human tissue (respectively). All kits were used in accordance with manufacturer protocol. Reverse transcription was done using iScript reagent (Bio-Rad). Quantitative real-time PCR was performed with iTaq universal SYBR green supermix (Bio-Rad) using Bio-Rad CFX96 real time system. Previous study has shown that Actb was among the most stably expressed genes in differentiating osteoblasts [Stephens A. S, et al., Internal control genes for quantitative RT-PCR expression analysis in mouse osteoblasts, osteoclasts and macrophages. BMC Res Notes 2011, 4, 410], and therefore expression data were normalized to the expression of Actb. For each expression analysis we used at least two different experiments, at least four biological replicates, and two technical replicates for each biological replicates for each gene. We performed a standard curve for each primer pair. […]

hepatocytes = details: cited from earlier work
aortic calcification = test: Vitamin D3 induced aortic calcification in ApoE-/- mice (Von Kossa, Alizarin red); assay type: in vivo, mouse; details: vitamin D3 overload, 5 mg/Kg/day IP then osmotic pump
Experimental: ApoE^−/− mice were purchased from The Jackson Laboratory. All animals were housed in a temperature-controlled environment with 12 hours light/dark cycles with food and water available ad libitum. Mice were aged 8 weeks when entering the study. Aortic calcification was induced via vitamin D3 overload as previously described [Idelevich A, Rais Y, Monsonego-Ornan E (2011) Bone Gla Protein Increases HIF-1-Dependent Glucose Metabolism and Induces Cartilage and Vascular Calcification. Arterioscler Thromb Vasc Biol 31: e55-e71]. 1α,25-Dihydroxyvitamin D3 (Sigma-Aldrich) was dissolved in 100% ethanol and diluted freshly. Mice received IP injections of 1α,25-Dihydroxyvitamin D3 for six consecutive days at a final concentration of 5 μg/Kg in 5% ethanol. SIK inhibition was achieved by daily administration of HG-9-91-01 (ApexBio #B1052) in DMSO at a final concentration of 5 mg/Kg/day. Littermate ApoE−/− mice were arbitrarily divided to receive treatment or control. In the first 4 days HG-9-91-01 was injected IP and on day 5 osmotic pumps (Alzet model 1002) were implanted. Animals were monitored daily and terminated for study at day 18. Specifically, mice were sacrificed in isoflurane and aortas were collected for histology. All mice procedures were performed in accordance with institutional guidelines. […]

VSMCs [2] = test: O-cresolphthalein calcium colorimetric assay of VSMCs (matrix calcification); assay type: cell-based, mouse; details: VSMCs in HPM, 14 days, normalized to protein concentration
Experimental: as §1
After 14 days of growth cells were washed in PBS and incubated overnight in 0.6N HCl. HCl was collected and calcium content was measured using o-cresolphthalein Calcium colorimetric assay kit (Sigma-Aldrich) according to manufacture instructions. Calcium concentration was then normalized to cells protein concentration.

aortic rings = test: Aortic rings assay in HPM (qRT-PCR of osteochondrogenic markers, Von Kossa stain); assay type: cell-based, mouse; details: aortic rings 14 days in HPM
Experimental: Aortas were either fresh frozen in OCT sliced into section with a cryostat or fixed in 4% formaldehyde, embedded in paraffin and cut into thin sections. Slides were stained to detect calcium depositions with Alizarin red or Von Kossa stains. Alizarin red: slides were incubated in 2% alizarin red (Sigma-Aldrich) for 5 minutes at room temperature, excess stain was washed in DDW. Von Kossa: slides were incubated for 20 minutes in 5% silver nitrate (Sigma-Aldrich), washed twice in DDW, immersed in 0.5% hydroquinone (Sigma-Aldrich) for 2 minutes followed by 2 minutes of 5% sodium thiosulfate (Alfa Aesar).
Aortic rings were prepared as described [Nature protocols, Use of the mouse aortic ring assay to study angiogenesis.—PubMed—NCBI, Last updated January 2012, Accessed on January 2012]. In brief, adult C57BL/6 mice were euthanized with isoflurane; thoracic aorta was dissected, cleaned under a microscope and cut into rings. […]
RNA was extracted from cultured cell using the NucleoSpin RNA kit (MACH EREY-NAGEL). […] Quantitative real-time PCR was performed with iTaq universal SYBR green supermix (Bio-Rad) using Bio-Rad CFX96 real time system. Previous study has shown that Actb was among the most stably expressed genes in differentiating osteoblasts [Stephens A. S, et al., Internal control genes for quantitative RT-PCR expression analysis in mouse osteoblasts, osteoclasts and macrophages. […]

COc1ccc(N2C(=O)N(c3c(C)cccc3Cl)Cc3cnc(Nc4ccc(C5CCN(C)CC5)cc4OC)nc32)nc1 [YKL-05-099]
skeletal effects / bone mass (bone mass): mimic skeletal effects of PTH and increase bone mass

CCC(=C/[C@H](C)C/C=C/C(C)=C/[C@@H](C)C(=O)[C@@H](C)[C@H](O)[C@@H](C)C/C(C)=C/C(=O)O)/C=C/[C@@H]1OC(=O)C=C[C@@H]1C [Leptomycin B, leptomycin B]
effect on HDAC4 location (nuclear accumulation / shuttling) (GFP-HDAC4 in VSMCs): induced nuclear accumulation of GFP-HDAC4

O=C(Nc1ccc(CN2CCOCC2)cc1)c1ccc(-c2cccc(Cl)c2)o1 [CID 2011756]
cytoplasmic localization of HDAC4 (GFP-HDAC4 in VSMCs; 10 μmol/L): 99.6%
effect on HDAC4 location (nuclear accumulation / shuttling) (GFP-HDAC4 in VSMCs): did not significantly affect the location of HDAC4

COc1ccc(N(C(=O)Nc2c(C)cccc2C)c2cc(Nc3ccc(N4CCN(C)CC4)cc3)ncn2)c(OC)c1 [HG-9-91-01]
upregulation of the osteochondrogenic genes (VSMCs [1]): blunted the upregulation of the osteochondrogenic genes
gluconeogenic gene expression and glucose production (hepatocytes): enhanced gluconeogenic gene expression and glucose production in hepatocytes
cytoplasmic localization of HDAC4 (GFP-HDAC4 in VSMCs; 0.5 μmol/L): 97.4%
cytoplasmic localization of HDAC4 (GFP-HDAC4 in VSMCs; 2 μmol/L): 75.7%
cytoplasmic localization of HDAC4 (GFP-HDAC4 in VSMCs; 10 μmol/L): 14.4%
effect on HDAC4 location (nuclear accumulation / shuttling) (GFP-HDAC4 in VSMCs): induced nuclear import of HDAC4 in a dose dependent manner
development of aortic medial calcifications (aortic calcification): markedly blunted the development of these calcifications
matrix calcification (matrix calcium) (VSMCs [2]): blunted
matrix calcification (Von Kossa stain) (aortic rings): blunted
upregulation of the osteochondrogenic genes (aortic rings; 1 μM vs DMSO): blunted

COc1ccc(N(C(=O)Oc2c(C)cccc2C)c2ccnc(Nc3ccc(N4CCN(C)CC4)cc3)n2)c(OC)c1 [WH-4-023]
effect on HDAC4 location (nuclear accumulation / shuttling) (GFP-HDAC4 in VSMCs): induced the shuttling of HDAC4 to the nucleus

O=C(NCCCNc1nc(Nc2cccc(CN3CCOCC3)c2)ncc1C1CC1)C1CCC1 [MRT67307]
effect on HDAC4 location (nuclear accumulation / shuttling) (GFP-HDAC4 in VSMCs): induced the shuttling of HDAC4 to the nucleus

COc1ccc(S(=O)(=O)N(CCO)c2ccccc2CN(C)C/C=C/c2ccc(Cl)cc2)cc1 [KN-93]
cytoplasmic localization of HDAC4 (GFP-HDAC4 in VSMCs; 10 μmol/L): 91.6%
effect on HDAC4 location (nuclear accumulation / shuttling) (GFP-HDAC4 in VSMCs): did not significantly affect the location of HDAC4
